The supplement of paper PMC11997997

Assays:
[1] = test system: murine bone marrow-derived macrophages; test: area under cytotoxicity dose-response curve (AUC (% cytotoxicity x dose, relative)); higher = more cytotoxic; conditions: duration: 6 days; dose range: 0.13-80 uM, 8 points
Summary of the method: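 Cytotoxicity is given as the area under the dose–response curve, computed in GraphPad Prism version 10. Primary murine bone marrow-derived macrophages in opaque 384-well plates received an 8-point, 2.5-fold dilution series (final 80–0.13 μM) for 6 days at 37 °C in 5% CO2. Viability was measured by Promega's CellTiter-Glo luminescence assay, with percent cytotoxicity normalised to vehicle and positive control wells.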

[2] = test system: Mycobacterium tuberculosis CDC1551 (intracellular, in murine BMDM); test: area under intracellular growth-inhibition dose-response curve (AUC (% inhibition x dose, relative)); higher = more potent; conditions: duration: 6 days; dose range: 0.13-80 uM, 8 points
Summary of the method: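 Luciferase-expressing M. tuberculosis CDC1551 was used at multiplicity of infection 1 for 1 h to infect primary murine bone marrow-derived macrophages in 384-well opaque plates, 24 h after seeding. Treatment followed for 6 days with an 8-dose, 2.5-fold series at final concentrations of 80–0.13 μM. GraphPad Prism was used to calculate the area under the growth-inhibition dose–response curve from Bright-Glo luciferin readings normalised to a reference drug control and the lowest-concentration wells.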

SMILES | area under cytotoxicity dose-response curve [1] | area under intracellular growth-inhibition dose-response curve [2]
Cc1ccc(S(=O)(=O)Nc2c(C)n(C)n(-c3ccccc3)c2=O)cc1C(=O)OC(C)C(=O)c1ccccc1 (centres undefined) | 6.34 | 17
O=C(Nc1ccc(NC(=S)NC(=O)c2cccs2)cc1)c1ccccc1 | 33.4 | 244
N#CCCn1cc(/C=N/NC(=O)c2ccncc2)c(-c2ccccc2)n1 | < 0 | 247
CCCC(=O)NC(=S)Nc1ccc(NC(=O)c2cccs2)cc1 | 8.63 | 261
COc1ccc(C=CC(C)=NNC(=O)c2ccncc2)cc1 | < 0 | 254
CCN(CC)CCNc1nc(-c2ccc(OC)cc2)c(-c2ccc(OC)cc2)s1 | 3.78 | 203
Cc1c2c(nc3ccccc13)CCC(C)C2.Cl (centres undefined) | < 0 | 199
Cc1cc(C)c2cc(C(=O)Nc3ccc(C)c(F)c3)[nH]c2c1 | < 0 | 214
CCC(NC(=O)Nc1nnc(C(F)(F)F)s1)(C(F)(F)F)C(F)(F)F | 14.5 | 143
CC(=O)n1cc(/C=N/NC(N)=S)c2ccccc21 | < 0 | 273
CC(C)[C@@H]1CC[C@@H](C)C[C@H]1OC(=O)C[n+]1cc(-c2ccc(Cl)cc2)n2c1CCCCC2.[Cl-] | 101 | 8.38
CC(NC(=O)c1ccccc1F)C12C[C@H]3C[C@@H](C1)C[C@@H](C2)C3 (some centres undefined) | 18.2 | 234
CC(C)c1ccc(NC(=S)NC2CCCCCC2)cc1 | < 0 | 141
COc1cc(-c2cc(C(=O)Nc3ccncc3)c3ccccc3n2)cc(OC)c1OC | 0.318 | 32.8
O=C(COc1ccccc1)NC1CCCCC1 | 80.6 | 260
Cc1cc(/C=N/NC(N)=S)c(C)n1-c1ccc(Cl)cc1 | 44.8 | 220
CN(C)c1nc(-c2ccccn2)nnc1-c1ccccc1 | 120 | 149
O=C(N/N=C\c1ccc([N+](=O)[O-])o1)C1COc2ccccc2O1 (centres undefined) | 10.7 | 203
CC(=O)O[C@H]1C[C@@]2(C)[C@@H](C[C@@H](O)[C@H]3[C@@]4(C)CC[C@@H](O)[C@@H](C)[C@@H]4CC[C@@]32C)/C1=C(\CCC=C(C)C)C(=O)[O-].[Na+] | 74.7 | 182
CC(C)C(=O)N1CCN(c2ccc(NC(=O)c3ccc([N+](=O)[O-])o3)cc2)CC1 | 84.2 | 64.2
CCN1CCN(c2cc3c(cc2F)c(=O)c(C(=O)O)cn3C2CC2)CC1 | 7.13 | 258

SMILES | area under cytotoxicity dose-response curve [1] | area under intracellular growth-inhibition dose-response curve [2]
O=C(NCc1cccc(Cl)c1)c1cccc(S(=O)(=O)N2CCCCC2)c1 | < 0 | 60.1
CC1CCC(C(C)C)C(OC(=O)C[n+]2cc(-c3ccc(Cl)cc3)n3c2CCCCC3)C1.[Cl-] (centres undefined) | 107 | 94.6
NC(=S)N/N=C/c1ccc(/C=N/NC(N)=S)cc1 | 20.6 | 258
Cc1nn(Cc2ccccc2)c(Cl)c1C(=O)NCc1ccco1 | 16.8 | 104
CCOC(=O)c1c(-c2ccccc2)nc2ccc(C)cn12 | 58.7 | 203
CSCCC(NC(=O)c1ccccc1Br)C(=O)NNC(=O)c1ccncc1 (centres undefined) | 12.7 | 244
O=C(CC1CCCCC1)NCc1ccccn1 | 3.91 | 222
COc1cc(C(C)=NNC(=O)c2ccncc2)ccc1O | 47.1 | 265
NC(=S)N/N=C/c1ccc(-c2ccc(Cl)c(Cl)c2)o1 | 107 | 219
NC(=O)C[C@H](NC(=O)c1ccc(Cl)cc1)C(=O)OCc1ccccc1 | < 0 | 16.5
NC(=S)N/N=C/c1ccc(-c2ccc(SC(F)F)cc2)o1 | 46.9 | 271
CC[C@@H](C)[C@H](CNC)NC[C@@H](Cc1cccc2ccccc12)NCCc1cccc(C(F)(F)F)c1 | 117 | 144
COc1cccc(/C=N/NC(N)=S)c1OS(=O)(=O)c1ccccc1 | 94.4 | 237
Cc1cc(C)cc(NC(=O)NC2CCCCCCC2)c1 | 109 | 198
CC(=O)N1CCN(c2cc3c(cc2F)c(=O)c(C(=O)O)cn3C2CC2)CC1 | 6.41 | 228
COc1ccccc1C(CNC(=O)c1ccc(-c2ccccc2Cl)o1)N1CCCC1 (centres undefined) | 141 | 164
Cc1ccccc1OCCC(=O)NNC(=O)c1ccccc1F | 17.3 | 106
CCC(=O)N(C)CCc1cc2c(c(OC)c1/C=N/NC(=O)c1ccncc1)OCO2 | 48.4 | 127
CC(NC(=O)c1ccc(F)cc1)C1CC2CCC1C2 (centres undefined) | 238 | 168
CC(=O)c1cc(NC(=O)c2ccccc2)c(=O)oc1/C=C/N(C)C | 30.2 | 160
COc1ccc(/C=N/NC(N)=S)cc1 | 4.45 | 258

SMILES | area under cytotoxicity dose-response curve [1] | area under intracellular growth-inhibition dose-response curve [2]
CCOC(=O)Nc1ccc(C(=O)Oc2ccccc2)c(O)c1 | 63.8 | 31.9
O=C(NC1CCCCCC1)c1cccs1 | < 0 | 243
CN(C)C1C(=O)C(C(N)=O)=C(O)C2(O)C(O)=C3C(=O)c4c(O)cccc4C(C)(O)C3C(O)C12 (centres undefined) | 22.3 | 166
COC(=O)c1c(NC(=O)CN2C(=O)NC3(CCCCC3C)C2=O)sc2c1CCC2 (centres undefined) | 4.39 | 78.7
Cc1cc(/C=N/NC(N)=S)c(C)n1-c1ccc(Cl)c(Cl)c1 | < 0 | 257
CNc1ccc2oc(C[C@H]3O[C@@]4(CC[C@H]3C)O[C@H]([C@H](C)C(=O)c3ccc[nH]3)[C@H](C)C[C@H]4C)nc2c1C(=O)O | 9.01 | 148
CCOC(=O)C1=C(COC(=O)c2ccc(OC)c(S(=O)(=O)N3CCOCC3)c2)NC(=O)NC1C (centres undefined) | 65.5 | 56.9
O=C(COc1ccccc1)N1CCN(c2ccccc2)CC1 | 10 | 122
CC(NC(=O)c1cc2ccccc2o1)c1cccs1 (centres undefined) | < 0 | 257
NC(=S)N/N=C/C=C/c1ccccc1 | 82.2 | 243
COc1cc(/C=N/NC(=O)c2ccncc2)ccc1O | 11.1 | 217
O=C(N/N=C/C=C\c1ccccc1[N+](=O)[O-])c1ccncc1 | 5.73 | 260
C=CCNc1nc(C(=O)OCC(=O)NCc2cccc(Cl)c2)cs1 | 96 | < 0
O=C1CN(C(=O)COC(=O)c2ccc(Br)o2)c2ccccc2N1 | 23.5 | 58.2
COC(=O)c1cccc(/C=N/NC(N)=S)c1O | 32.1 | 144
CSc1nnc(-c2ccc(NC(N)=S)cc2)o1 | 96.1 | 154
Cc1cc(OCC(=O)N2CCCC2)ccc1Cl | 55.1 | 220
O=C(CCN1C(=O)/C(=C/c2cccs2)SC1=S)Nc1ccc(C(=O)O)c(O)c1 | 68.2 | 189
C/C(=N/NC(N)=S)c1ccc(Br)s1 | < 0 | 268
CCOc1cc(/C=N\Nc2nc(-c3ccc(C)cc3)c(NC(C)=O)s2)ccc1O | < 0 | 256
